The values that follow come from patent publication US12365643B2, “Phenoxy carboxylic acid compounds and medical uses thereof” (QINGDAO RISING BIOTECHNOLOGY CO., LTD, priority 2018, dated 2025).

The test system of data set [1] is phosphorylated IRS-1. Kind of data set: Phosphorylated IRS-1 level by Western blotting in HepG2. The data set is classed as cell-based, human. As to conditions: 1 μM, 24 hours, HepG2, Western blotting (FIG. 6C). An excerpt: (§1) Carnitine palmitoyltransferase (CPT1α) is a rate-limiting enzyme of fatty acid oxidation. When the body or tissues are lacking in energy, CPT1α catalyzes the entry of fatty acids into mitochondria for […], and at the same time, CPT1α is also involved in the regulation of fatty acid-induced insulin resistance and inflammation. Protein kinase B/glycogen synthase kinase 3β (AKT/GSK3β) signaling pathway and insulin receptor substrate 1 (IRS-1) are key signaling pathways that regulate glucose metabolism in response to insulin signal. Therefore, by determining the effects of compounds on the CPT1α protein level and the AKT, GSK3β and IRS-1 protein phosphorylation levels, it is possible to evaluate the regulatory effects of the compounds on glycolipid metabolism.
(§2) After human liver cancer cells HepG2 were incubated with the compound of the present application or the control drug at 1 μM for 24 hours, the CPT1α protein level and the AKT, GSK3β and IRS-1 phosphorylated protein levels in the cells were determined by Western blotting; after gray-scale scanning by using Image J15.0.1, normalization was performed by using β-tubulin protein level as internal control, and the quantitative analysis results were shown in FIG. 6.
(In general: Immunoblotting shows a protein as a band on a membrane.)

In data set [2] the test system is PGC1α. Kind of data set: PGC1α mRNA expression by real-time quantitative PCR in HepG2. As to conditions: 1 μM, 6 hours, HepG2 (FIG. 5C). The data set is classed as cell-based, human. An excerpt: (§3) Peroxisome proliferation factor activated receptor (PPAR) is an important nuclear receptor that regulates glycolipid metabolism, including three subtypes: α, β/δ and γ. Peroxisome proliferator-activated receptor γ coactivator 1α (PGC-1α) is its auxiliary transcriptional activator. Acyl-CoA oxidase 1 (ACOX1) is the first rate-limiting enzyme for fatty acid β oxidation. Fatty acid binding protein 1 (FABP1) is highly expressed in liver, and can bind fatty acid, heme and other molecules to reduce their toxicity and damage. Up-regulating the expression level of these genes helps to improve the body's metabolism, and their agonists are an important class of anti-metabolic drugs. After the compound of the present application (1 μM) and the control drug gemfibrozil (1 μM) were incubated with human liver cancer cells HepG2 for 6 hours, real-time fluorescent quantitative PCR method was used to determine the relative expression of mRNA of related genes in the cells.
(§4) The company which synthesized the primers was Suzhou Hongxun Biotechnology Co., Ltd. Tranzol reagent (Tranzol total RNA extraction reagent, TransGen Biotech) was used to extract total RNA from tissues. 5× All-In-One RT MasterMix reverse transcription kit (Abcam, USA) and real-time quantitative PCR Master Mix (Aidlab Biotechnologies Co., Ltd) were used. Bio-Rad CFX Connect™ Real-Time PCR Detection System for qPCR was used, and 2^−ΔΔCT method was used for data analysis. The expression level of mRNA in the normal control group was set to 1, and the relative expression level of mRNA in the administration group was calculated, so as to confirm whether the active compound affected the PPAR pathway, thereby further regulating lipid metabolism.

Data set [3] deals with antioxidant response element (ARE). Kind of data set: ARE luciferase reporter gene activity in HepG2 cells. Type of data set: cell-based, human. Particulars: 50 μM, HepG2 stably transfected (FIG. 4). The procedure:
(§5) NF-κB was the most important inflammatory signal pathway. SW480 human colon cancer cells stably transfected with a luciferase reporter gene driven by NF-κB were used to determine the effects of the compound of the present application and the control drug gemfibrozil on NF-κB transcriptional activity, which comprised the following steps. • (1) Cells stably transfected with NF-κB Luc were cultivated to exponential growth, inoculated at a culture medium concentration of 1×10^5/[…] in a 24-well plate, and cultured for 24 hours, the medium was discarded, and the test compound or gemfibrozil formulated with serum-free medium at 50 μM were added to the 24-well plate and incubation was continued for 6 hours. After washing once with 200 μL of PBS, 100 μL of reporter gene cell lysis buffer was added, the cells were lysed on ice for 10 minutes, and the cell lysate was collected by pipetting. • (2) After centrifugation was performed at 8000 rpm and 4° C. for 10 min, the supernatant was pipetted for fluorescence assay. • (3) The measurement gap time of chemiluminescence analyzer was set to 2 s and the measurement time was set to 10 s. Automatic sample injection was adopted, 50 μL of luciferase assay reagent was added to each well. The reporter gene cell lysis buffer was used as a blank control. • (4) After centrifugation, the supernatant was taken, and the BCA method was used to determine the protein concentration so as to normalize the reporter gene results.
In this experimental example, the luciferase activity in HepG2 human liver cancer cells stably transfected with a luciferase reporter gene driven by antioxidant response element (ARE) was determined to evaluate the regulatory effects of the compound of the present application and gemfibrozil on the transcriptional activity of transcription factor Nrf2 and the cellular oxidative stress response signals, in which the operation process of the reporter gene assay was the same as that of Experimental Example 2.2.
On the technique in general: Reporter assays use an easily measured gene product as a stand-in for the process of interest.

Data set [4] relates to NF-κB. Kind of data set: NF-κB luciferase reporter gene transcriptional activity in SW480 cells. The data set is classed as cell-based, human. Particulars: 50 μM, 6 hours, SW480 stably transfected (FIG. 3). As for the experimental part:
as §5

Data set [5] relates to PPARγ. Kind of data set: PPARγ mRNA expression by real-time quantitative PCR in HepG2. The data set is classed as cell-based, human. As to conditions: 1 μM, 6 hours, HepG2 (FIG. 5B).
Description: as §3, §4

Data set [6] concerns db/db mice. Put plainly: Diabetes mellitus model (db/db mice). Particulars: intragastric once a day for 28 days, 50 mg/kg (pioglitazone 6 mg/kg). Type of data set: in vivo, mouse. An excerpt: Animal model: C57BL/KsJ-leprdb/leprdb diabetic (db/db) mice were widely used as animal models of type 2 diabetes mellitus, in which spontaneous mutations of leptin receptor (Leptin receptor, Lepr) caused extreme obesity, polyphagia, diabetes and polyuria. In this experiment, db/db mice (purchased from the Department of Animals, Health Science Center of Peking University) were selected. In the experiment, 28 db/db mice were used, and the animals with blood glucose of about 7-13 mmol/L were selected. […] Intragastric administration was adopted with an administration volume of 10 ml/kg. […] The administration was performed once a day for 28 consecutive days. From the day of oral administration, the physiological changes of the animals were observed every day. Blood glucose was measured every 3 days (Roche blood glucose meter) and blood glucose difference (Δ) was calculated by the following formula: blood glucose difference (Δ)=the blood glucose of the day—the initial blood glucose (the initial blood glucose difference was zero). For mice in each experimental group, blood was collected, serum was separated, and liver was taken for wet-weight measurement after necropsy; liver tissue was taken and fixed for pathological examination, H.E. staining and oil red O staining (Wuhan Zishan Biotechnology Co., Ltd.) were performed, and mouse liver lesions were observed under light microscope; routine examination of blood was performed by Animal Laboratory Department, Health Science Center of Peking University to measure the following indexes: white blood cell count (WBC), red blood cell count (RBC), lymphocyte count (LY), platelet (PLT) and so on; biochemical laboratory examination of blood was performed by Laboratory Medicine, Third Hospital, Peking University to measure the following indexes: triglycerides (TG), total cholesterol (T-CHO), high-density lipoprotein cholesterol (HDL-C), low-density lipoprotein cholesterol (LDL-C) and so on.

For data set [7], the system named is RAW264.7 mouse macrophages. Kind of data set: Determination of NO generation induced by LPS. Type of data set: cell-based. As to conditions: 10 μM, 1 μg/mL LPS, 24 hours, RAW264.7 (FIG. 2). The procedure: The results are expressed as the multiple of the NO content in the cell culture supernatant of the administration group (10 μM) as compared with that in the cell culture supernatant of the control group (DMSO group), in which compared with the control group, *P<0.05, **P<0.01, ***P<0.001.
NO is a reactive nitrogen species (RNS) and an important gas signal molecule. Macrophages could convert arginine into NO which participated in the body's inflammatory response. Therefore, determination of inhibitory activity of a drug on NO generation was one of the classic methods to evaluate drug's anti-inflammatory ability. RAW264.7 cells at exponential growth phase were inoculated into a 96-well plate at 1×10^4 cells/200 μL. well of medium. After adherence, the medium was discarded, and the cells were subjected to drug treatments. Normal group (serum-free medium), LPS model group (serum-free medium containing 1 μg/mL LPS), LPS+drug group (serum-free medium containing 1 μg/mL LPS, 10 μM gemfibrozil or the compound of the present application) were established, and 3 repeated wells were set for each group. After 24 hours incubation in incubator, cell supernatant of each well was collected and assay was performed according to the instructions of NO determination kit (Nanjing Jiancheng). The absorbance value of each well at wavelength of 540 nm was read and NO content was calculated.

The subject of data set [8] is CPT1α. Kind of data set: CPT1α protein level by Western blotting in HepG2. Type of data set: cell-based, human. Particulars: 1 μM, 24 hours, HepG2, Western blotting (FIG. 6A).
Description: as §1, §2

For `COc1cc(Br)c(C)cc1OCCCC(C)(C)C(=O)O` [BJMU-412, 5-(4-bromo-2-methoxy-5-methylphenoxy)-2,2-dimethylpentanoic acid], in data set [1], the “phosphorylation level of IRS-1” value was “significantly increased the phosphorylation level of IRS-1”. Moreover, in data set [2], the “PGC1α mRNA expression” value is “significantly induced PGC1α mRNA expression”. In data set [3], the “ARE reporter gene activity” value is recorded as “could significantly activate the ARE reporter gene activity”.
As to `Cc1ccc(C)c(OCCCC(C)(C)C(=O)O)c1Cl` [BJMU-209, 5-(2-chloro-3,6-dimethylphenoxy)-2,2-dimethylpentanoic acid], the “phosphorylation level of IRS-1” value in data set [1] was “significantly increased the phosphorylation level of IRS-1”. Also, the “activity of NF-κB reporter gene” value in data set [4] is given as “could significantly inhibit the activity of NF-κB reporter gene”.
In the case of `Cc1cc(OCCCC(C)(C)C#N)c(C)cc1Br` [BJMU-309, 5-(4-bromo-2,5-dimethylphenoxy)-2,2-dimethylpentanenitrile], the “phosphorylation level of IRS-1” value in data set [1] is “significantly increased the phosphorylation level of IRS-1”. The “activity of NF-κB reporter gene” value in data set [4] is given as “could significantly inhibit the activity of NF-κB reporter gene”. Besides, the “PPARγ mRNA expression” value in data set [5] is reported as “significantly induced PPARγ mRNA expression”.
On to `CCc1ccc(CCOc2ccc(CC3SC(=O)NC3=O)cc2)nc1` (centres unmarked) [Pioglitazone, pioglitazone], for which, in data set [6], the “AHDL (high density lipoprotein)” value was 1.65 ± 0.29 mmol/L, the “ALDL (low density lipoprotein)” value turned out to be 0.38 ± 0.03 mmol/L, the ALT is 225.43 ± 79.31 U/L and the AST is 212.79 ± 91.2 U/L. In data set [6], the “CHOL (total cholesterol)” value amounted to 3.45 ± 0.26 mmol/L, the CK amounted to 1482.86 ± 707.74 U/L, the CREA stood at 12 ± 3.91 µmol/L and the “TGL (triglycerides)” value is 2.17 ± 0.61 mmol/L.
For the molecule `Cc1cc(Br)c(C)c(O)c1OCCCC(C)(C)C(=O)O` [BJMU-415, 5-(4-bromo-2-hydroxy-3,6-dimethylphenoxy)-2,2-dimethylpentanoic acid], the “NO generation induced by LPS” value in data set [7] is reported as “could inhibit NO generation”. In data set [1], the “phosphorylation level of IRS-1” value is recorded as “significantly increased the phosphorylation level of IRS-1”. In addition, the “activity of NF-κB reporter gene” value in data set [4] is recorded as “could significantly inhibit the activity of NF-κB reporter gene”. Further, the CPT1α protein level entry in data set [8] is listed as “significantly increased CPT1α protein level”. In addition, in data set [2], the “PGC1α mRNA expression” value is given as “significantly induced PGC1α mRNA expression”. The “PPARγ mRNA expression” value in data set [5] was “significantly induced PPARγ mRNA expression”. For the same molecule, in data set [3], the “ARE reporter gene activity” value was “could significantly activate the ARE reporter gene activity”.
As for `Cc1cc(OCCCC(C)(C)C(=O)O)c(C)c(C)c1Br` [BJMU-315, 5-(4-bromo-2,3,5-trimethylphenoxy)-2,2-dimethylpentanoic acid], the “activity of NF-κB reporter gene” value in data set [4] is reported as “could significantly inhibit the activity of NF-κB reporter gene”.
With `Cc1cc(OCCCCC(C)(C)C(=O)O)c(C)cc1Br` [BJMU-403, 6-(4-bromo-2,5-dimethylphenoxy)-2,2-dimethylhexanoic acid], the “NO generation induced by LPS” value in data set [7] is reported as “could inhibit NO generation”. Moreover, the “ARE reporter gene activity” value in data set [3] is “could significantly activate the ARE reporter gene activity”.
As to `Cc1cc(OCCCC(C)(C)C(=O)O)c(C)c(O)c1Br` [BJMU-416, 5-(4-bromo-3-hydroxy-2,5-dimethylphenoxy)-2,2-dimethylpentanoic acid], the “phosphorylation level of IRS-1” value in data set [1] is on record as “significantly increased the phosphorylation level of IRS-1”. The “ARE reporter gene activity” value in data set [3] is “could significantly activate the ARE reporter gene activity”.
`Cc1cc(Br)c(C)c(I)c1OCCCC(C)(C)C(=O)O` [BJMU-413, 5-(4-bromo-2-iodo-3,6-dimethylphenoxy)-2,2-dimethylpentanoic acid]: the “NO generation induced by LPS” value in data set [7] is reported as “could inhibit NO generation”.
Consider `CCC(C)(CCCOc1cc(C)c(Br)cc1C)C(=O)O` (centres unmarked) [BJMU-401, 5-(4-bromo-2,5-dimethylphenoxy)-2-ethyl-2-methylpentanoic acid], for which the “NO generation induced by LPS” value in data set [7] is reported as “could inhibit NO generation”. Further, the “ARE reporter gene activity” value in data set [3] is “could significantly activate the ARE reporter gene activity”.
Turning to `Cc1cc(OCCC(C)(C)C(=O)O)c(C)cc1Br` [BJMU-111, 4-(4-bromo-2,5-dimethylphenoxy)-2,2-dimethylbutanoic acid], in data set [7], the “NO generation induced by LPS” value is recorded as “could inhibit NO generation”.
